Assay results taken from US9108950B2, “1-pyrazolyl-3-(4-((2-anilinopyrimidin-4-yl)oxy)napththalen-1-yl) ureas as p38 MAP kinase inhibitors” (Respivert Ltd., priority 2011, dated 2015).
pIC50: −log10 of the molar value.

Tests used:
BEAS2B cells = experiment: Poly I:C-induced ICAM-1 expression in BEAS2B cells; type: cell-based; details: Homo sapiens, BEAS-2B, read-out: PolyIC/ICAM1 IC50 (BEAS2B)
Experimental: Poly I:C was used in these studies as a simple, RNA virus mimic. Poly I:C-Oligofectamine mixture (1 μg/mL Poly I:C, ±2% Oligofectamine, 25 μL; Invivogen Ltd., San Diego, Calif., and Invitrogen, Carlsbad, Calif., respectively) was transfected into BEAS2B cells (human bronchial epithelial cells, ATCC). Cells were pre-incubated with final concentrations of test compounds for 2 hr and the level of ICAM-1 expression on the cell surface was determined by cell-based ELISA. […]
The cells were washed with PBS-Tween (3×200 μL) and incubated with the secondary antibody (100 μL; HRP-conjugated anti-rabbit IgG, Dako Ltd., Glostrup, Denmark). […] The ICAM-1 signal was detected by reading […] the absorbance at 450 nm against a reference wavelength of 655 nm using a spectrophotometer. The cells were then washed with PBS-Tween (3×200 μL) and total cell numbers in each well were determined by reading absorbance at 595 nm after Crystal Violet staining (50 μL of a 2% solution in PBS) and elution by 1% SDS solution (100 μL) in distilled water. The measured OD 450-655 readings were corrected for cell number by dividing with the OD595 reading in each well. The inhibition of ICAM-1 expression was calculated at each concentration of test compound by comparison with vehicle control.

[1] = test system: Differentiated U937 cells; experiment: Cell viability: MTT assay; type: cell-based, human; details: 1 μg/mL
Experimental: Differentiated U937 cells were pre-incubated with each test compound (final concentration 1 μg/mL or 10 μg/mL in 200 μL media indicated below) under two protocols: the first for 4 hr in 5% FCS RPMI1640 media and the second in 10% FCS RPMI1640 media for 24 h. The supernatant was replaced with new media (200 μL) and MTT stock solution (10 μL, 5 mg/mL) was added to each well. After incubation for 1 hr the media were removed, DMSO (200 μL) was added to each well and the plates were shaken lightly for 1 hr prior to reading the absorbance at 550 nm. The percentage loss of cell viability was calculated for each well relative to vehicle (0.5% DMSO) treatment. Consequently an apparent increase in cell viability for drug treatment relative to vehicle is tabulated as a negative percentage.

[2] = test system: LPS-induced neutrophil accumulation; experiment: LPS-induced neutrophil accumulation in mice; type: in vivo, Balb/c mice
Experimental: […] At T=0, mice were placed into an exposure chamber and exposed to LPS (7.0 mL, 0.5 mg/mL solution in PBS) for 30 min). After a further 8 hr the animals were anesthetized, their tracheas cannulated and BALF extracted by infusing and then withdrawing from their lungs 1.0 mL of PBS via the tracheal catheter. Total and differential white cell counts in the BALF samples were measured using a Neubaur haemocytometer. Cytospin smears of the BALF samples were prepared by centrifugation at 200 rpm for 5 min at RT and stained using a DiffQuik stain system (Dade Behring). Cells were counted using oil immersion microscopy. Data for neutrophil numbers in BAL are shown as mean±S.E.M. (standard error of the mean). The percentage inhibition of neutrophil accumulation was calculated for each treatment relative to vehicle treatment.

Cigarette Smoke Model = experiment: Cigarette smoke model; type: in vivo, A/J mice
Experimental: A/J mice (males, 5 weeks old) were exposed to cigarette smoke (4% cigarette smoke, diluted with air) for 30 min/day for 11 days using a Tobacco Smoke Inhalation Experiment System for small animals (Model SIS-CS; Sibata Scientific Technology, Tokyo, Japan). […] At 12 hr after the last dosing, each of the animals was anesthetized, the trachea cannulated and bronchoalveolar lavage fluid (BALF) was collected. The numbers of alveolar macrophages and neutrophils were determined by FACS analysis (EPICS® ALTRA II, Beckman Coulter, Inc., Fullerton, Calif., USA) using anti-mouse MOMA2 antibody (macrophage) or anti-mouse 7/4 antibody (neutrophil). BALF was centrifuged and the supernatant was collected. The level of keratinocyte chemoattractant (KC; CXCL1) in BALF was quantitated using a Quentikine® mouse KC ELISA kit (R&D systems, Inc., Minneapolis, Minn., USA).

[3] = 0.05 mg/mL intra tracheal, 2 hr pre-dose

Question: `Cc1ccc(-n2nc(C(C)(C)C)cc2NC(=O)Nc2ccc(Oc3ccnc(Nc4ccccc4)n3)c3ccccc23)cc1` [Compound (I), 1-(3-(tert-Butyl)-1-(p-tolyl)-1H-pyrazol-5-yl)-3-(4-((2-(phenylamino)pyrimidin-4-yl)oxy)naphthalen-1-yl)urea] was tested. Which pIC50 (BEAS2B cells) did it give?
Answer: 7.99

Question: What about the “MTT Assay Cell viability in d-U937 Cells” value ([1]; 4 h) of the same compound?
Answer: −ve (−ve and +ve indicate the value is below and above respectively, the no significant effect threshold defined as 30% inhibition at 1 μg/mL at the time point indicated.)

Question: What about the “MTT Assay Cell viability in d-U937 Cells” value ([1]; 24 h) of the same compound?
Answer: −ve (−ve and +ve indicate the value is below and above respectively, the no significant effect threshold defined as 30% inhibition at 1 μg/mL at the time point indicated.)

Question: And the “% inhibition of neutrophil accumulation” value [2, 3]?
Answer: 18%

Question: And the “Neutrophil numbers in BALF” value [2, 3]?
Answer: 15.6 ± 2.1 ×10^5/mL

Question: What about the “% inhibition of neutrophil accumulation” value ([2]; 0.2 mg/mL, 2 hr pre-dose) of the same compound?
Answer: 48%

Question: What about the “Neutrophil numbers in BALF” value ([2]; 0.2 mg/mL, 2 hr pre-dose) of the same compound?
Answer: 9.8 ± 1.6 ×10^5/mL

Question: What about the “% inhibition of neutrophil accumulation” value ([2]; 1.0 mg/mL, 2 hr pre-dose) of the same compound?
Answer: 77%

Question: What about the “Neutrophil numbers in BALF” value ([2]; 1.0 mg/mL, 2 hr pre-dose) of the same compound?
Answer: 4.4 ± 0.89 ×10^5/mL

Question: And the “% inhibition of neutrophil accumulation” value ([2]; 1.0 mg/mL, 8 hr pre-dose)?
Answer: 48%

Question: And the “Neutrophil numbers in BALF” value ([2]; 1.0 mg/mL, 8 hr pre-dose)?
Answer: 9.9 ± 1.8 ×10^5/mL

Question: What about the “% inhibition of neutrophil accumulation” value ([2]; 1.0 mg/mL, 12 hr pre-dose) of the same compound?
Answer: 4%

Question: What about the “Neutrophil numbers in BALF” value ([2]; 1.0 mg/mL, 12 hr pre-dose) of the same compound?
Answer: 18.3 ± 2.3 ×10^5/mL

Question: What about the “duration of action (time course experiment)” value ([2]; mice) of the same compound?
Answer: long duration of action

Question: And the “effect on LPS-induced neutrophil accumulation” value ([2]; mice)?
Answer: dose dependent inhibition

Question: What about the “CXCL1 in BALF % inhibition” value (Cigarette Smoke Model; 0.32 μg/mL) of the same compound?
Answer: 0%

Question: What about the Macrophage % inhibition (Cigarette Smoke Model; 0.32 μg/mL) of the same compound?
Answer: 11%

Question: What about the Neutrophil % inhibition (Cigarette Smoke Model; 0.32 μg/mL) of the same compound?
Answer: 12%

Question: What about the “Neutrophil cell numbers in BALF” value (Cigarette Smoke Model; 0.32 μg/mL) of the same compound?
Answer: 12.4 ± 0.32 × 10^4/mL

Question: What about the “Macrophage cell numbers in BALF” value (Cigarette Smoke Model; 0.32 μg/mL intra-nasal, tobacco smoke) of the same compound?
Answer: 13.3 ± 0.20 × 10^4/mL

Question: What about the “CXCL1 in BALF” value (Cigarette Smoke Model; 0.32 μg/mL, tobacco smoke) of the same compound?
Answer: 13.6 ± 1.69 pg/mL

Question: And the “CXCL1 in BALF” value (Cigarette Smoke Model; 1.6 μg/mL)?
Answer: 12.2 ± 0.96 pg/mL

Question: And the “CXCL1 in BALF % inhibition” value (Cigarette Smoke Model; 1.6 μg/mL)?
Answer: 26%

Question: What about the Macrophage % inhibition (Cigarette Smoke Model; 1.6 μg/mL) of the same compound?
Answer: 28%

Question: What about the “Macrophage cell numbers in BALF” value (Cigarette Smoke Model; 1.6 μg/mL) of the same compound?
Answer: 11.6 ± 0.42 × 10^4/mL

Question: And the Neutrophil % inhibition (Cigarette Smoke Model; 1.6 μg/mL)?
Answer: 29%

Question: What about the “Neutrophil cell numbers in BALF” value (Cigarette Smoke Model; 1.6 μg/mL) of the same compound?
Answer: 10.5 ± 0.06 × 10^4/mL

Question: And the “CXCL1 in BALF” value (Cigarette Smoke Model; 8.0 μg/mL)?
Answer: 11.4 ± 0.15 pg/mL

Question: And the “CXCL1 in BALF % inhibition” value (Cigarette Smoke Model; 8.0 μg/mL)?
Answer: 41%

Question: And the Macrophage % inhibition (Cigarette Smoke Model; 8.0 μg/mL)?
Answer: 43%

Question: What about the “Macrophage cell numbers in BALF” value (Cigarette Smoke Model; 8.0 μg/mL) of the same compound?
Answer: 10.1 ± 0.42 × 10^4/mL

Question: And the Neutrophil % inhibition (Cigarette Smoke Model; 8.0 μg/mL)?
Answer: 41%

Question: What about the “Neutrophil cell numbers in BALF” value (Cigarette Smoke Model; 8.0 μg/mL) of the same compound?
Answer: 9.1 ± 0.28 × 10^4/mL

Question: And the “CXCL1 in BALF” value (Cigarette Smoke Model; 40 μg/mL)?
Answer: 9.5 ± 0.84 pg/mL

Question: What about the “CXCL1 in BALF % inhibition” value (Cigarette Smoke Model; 40 μg/mL) of the same compound?
Answer: 76%

Question: And the Macrophage % inhibition (Cigarette Smoke Model; 40 μg/mL)?
Answer: 64%

Question: And the “Macrophage cell numbers in BALF” value (Cigarette Smoke Model; 40 μg/mL)?
Answer: 7.9 ± 0.20 × 10^4/mL

Question: And the Neutrophil % inhibition (Cigarette Smoke Model; 40 μg/mL)?
Answer: 52%

Question: What about the “Neutrophil cell numbers in BALF” value (Cigarette Smoke Model; 40 μg/mL) of the same compound?
Answer: 7.9 ± 0.34 × 10^4/mL

Question: And the “effect on cigarette smoke induced CXCL1 (KC) production in BALF” value (Cigarette Smoke Model; mice)?
Answer: inhibited

Question: What about the “effect on macrophage and neutrophil accumulation in BALF induced by cigarette smoke” value (Cigarette Smoke Model; mice) of the same compound?
Answer: dose-dependent inhibition
